Laboratory results taken from PubChem BioAssay (NCI).
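A five-concentration, 48-hour dose response in 96-well plates underlies each endpoint, interpolated linearly between surrounding concentrations. TGI is the concentration that stops growth completely.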

Experiments:
Assay in all cases: NCI anticancer screen, dose series, 48 h
[1] = tested on: HCT-116 colon
[2] = tested on: M14 melanoma
[3] = tested on: RXF-631 renal
[4] = tested on: SN12C renal
[5] = tested on: CAKI-1 renal
[6] = tested on: SF-268 CNS
[7] = tested on: SR leukemia
[8] = tested on: SNB-75 CNS
[9] = tested on: LXFL 529 NSCLC
[10] = tested on: HOP-18 NSCLC
[11] = tested on: SNB-19 CNS
[12] = tested on: A549 NSCLC
[13] = tested on: SK-OV-3 ovarian
[14] = tested on: ACHN renal
[15] = tested on: NCI-H460 lung
[16] = tested on: KM20L2 colon
[17] = tested on: OVCAR-8 ovarian
[18] = tested on: COLO 205 colon
[19] = tested on: SW-620 colon
[20] = tested on: HCC-2998 colon
[21] = tested on: UACC-62 melanoma
[22] = tested on: SK-MEL-2 melanoma
[23] = tested on: UO-31 renal
[24] = tested on: 786-0 renal
[25] = tested on: HCT-15 colon
[26] = tested on: SK-MEL-5 melanoma
[27] = tested on: KM12 colon
[28] = tested on: NCI-H226 lung
[29] = tested on: HOP-62 NSCLC
[30] = tested on: K-562 leukemia
[31] = tested on: DLD-1 colon
[32] = tested on: SNB-78 CNS
[33] = tested on: OVCAR-4 ovarian
[34] = tested on: A498 renal
[35] = tested on: MOLT-4 leukemia
[36] = tested on: SK-MEL-28 melanoma
[37] = tested on: RXF 393 renal
[38] = tested on: RPMI-8226 leukemia
[39] = tested on: CCRF-CEM leukemia
[40] = tested on: UACC-257 melanoma
[41] = tested on: HL-60(TB) leukemia
[42] = tested on: TK-10 renal
[43] = tested on: M19-MEL melanoma
[44] = tested on: IGROV1 ovarian
[45] = tested on: NCI-H522 lung
[46] = tested on: OVCAR-3 ovarian
[47] = tested on: MALME-3M melanoma
[48] = tested on: DMS 114 small cell lung
[49] = tested on: SF-539 CNS
[50] = tested on: DMS 273 small cell lung
[51] = tested on: U251 CNS
[52] = tested on: OVCAR-5 ovarian
[53] = tested on: HT29 colon
[54] = tested on: SF-295 CNS
[55] = tested on: NCI-H23 lung
[56] = tested on: EKVX NSCLC
[57] = tested on: XF 498 CNS
[58] = tested on: HOP-92 NSCLC

`C[N+](C)=c1nc(N2CCc3ccccc3C2)ss1` was tested, and the TGI [1] was greater than 100 µM, the TGI [2] was greater than 100 µM and the TGI [3] was greater than 100 µM. It also gave a TGI [4] greater than 100 µM, a TGI [5] greater than 100 µM and a TGI [6] greater than 100 µM. For the same compound, the TGI [7] was greater than 100 µM, the TGI [8] was greater than 100 µM and the TGI [9] was greater than 100 µM. For the same compound, the TGI [10] was greater than 100 µM, the TGI [11] was greater than 100 µM and the TGI [12] was greater than 100 µM. For the same compound, the TGI [13] was greater than 100 µM, the TGI [14] was greater than 100 µM and the TGI [15] was greater than 100 µM. For the same compound, the TGI [16] was greater than 100 µM, the TGI [17] was greater than 100 µM and the TGI [18] was greater than 100 µM. The TGI [19] was greater than 100 µM, the TGI [20] was greater than 100 µM and the TGI [21] was greater than 100 µM. For the same compound, the TGI [22] was greater than 100 µM, the TGI [23] was greater than 100 µM and the TGI [24] was greater than 100 µM. The TGI [25] was greater than 100 µM, the TGI [26] was greater than 100 µM and the TGI [27] was greater than 100 µM. For the same compound, the TGI [28] was greater than 100 µM, the TGI [29] was greater than 100 µM and the TGI [30] was greater than 100 µM. For the same compound, the TGI [31] was greater than 100 µM, the TGI [32] was greater than 100 µM and the TGI [33] was greater than 100 µM. For the same compound, the TGI [34] was greater than 100 µM, the TGI [35] was greater than 100 µM and the TGI [36] was greater than 100 µM. The TGI [37] was greater than 100 µM, the TGI [38] was greater than 100 µM and the TGI [39] was greater than 100 µM. For the same compound, the TGI [40] was greater than 100 µM, the TGI [41] was greater than 100 µM and the TGI [42] was greater than 100 µM. For the same compound, the TGI [43] was greater than 100 µM, the TGI [44] was greater than 100 µM and the TGI [45] was greater than 100 µM. It also gave a TGI [46] greater than 100 µM, a TGI [47] greater than 100 µM and a TGI [48] greater than 100 µM. For the same compound, the TGI [49] was greater than 100 µM, the TGI [50] was greater than 100 µM and the TGI [51] was greater than 100 µM.

Work on `Cc1ccccc1N=NC(C(=O)c1ccccc1)C(=O)c1ccccc1` yielded a TGI [1] of 54.4 µM, a TGI [2] of 39.1 µM and a TGI [3] greater than 100 µM. It also gave a TGI [4] of 58 µM, a TGI [5] of 96.6 µM and a TGI [52] of 81.2 µM. For the same compound, the TGI [6] was greater than 100 µM, the TGI [8] was 70.5 µM and the TGI [9] was greater than 100 µM. The TGI [11] was 85.5 µM, the TGI [12] was greater than 100 µM and the TGI [53] was greater than 100 µM. For the same compound, the TGI [13] was 88.4 µM, the TGI [14] was greater than 100 µM and the TGI [16] was 70.7 µM. For the same compound, the TGI [17] was greater than 100 µM, the TGI [18] was greater than 100 µM and the TGI [19] was greater than 100 µM. For the same compound, the TGI [54] was greater than 100 µM, the TGI [20] was greater than 100 µM and the TGI [21] was 59.7 µM. For the same compound, the TGI [22] was 46.5 µM, the TGI [23] was 50.2 µM and the TGI [24] was 78.3 µM. For the same compound, the TGI [25] was 80.8 µM, the TGI [26] was 55.9 µM and the TGI [27] was greater than 100 µM. For the same compound, the TGI [28] was 32.2 µM, the TGI [29] was 70.6 µM and the TGI [30] was greater than 100 µM. It also gave a TGI [31] greater than 100 µM, a TGI [33] of 85.3 µM and a TGI [34] greater than 100 µM. It also gave a TGI [35] of 74.3 µM, a TGI [36] greater than 100 µM and a TGI [38] of 60.9 µM. For the same compound, the TGI [39] was 53.9 µM, the TGI [55] was 55.2 µM and the TGI [40] was greater than 100 µM. It also gave a TGI [41] of 37.9 µM, a TGI [42] greater than 100 µM and a TGI [43] of 42.5 µM. For the same compound, the TGI [44] was greater than 100 µM, the TGI [45] was 39 µM and the TGI [56] was 88.3 µM. The TGI [46] was greater than 100 µM, the TGI [47] was greater than 100 µM and the TGI [57] was 55.1 µM. For the same compound, the TGI [48] was 50.7 µM, the TGI [49] was 81.8 µM and the TGI [50] was 62.3 µM. For the same compound, the TGI [51] was greater than 100 µM and the TGI [58] was 46.4 µM.
